Consider three substances from patent US20250367268A1, “Compositions and Methods for Treating Internal Bleeding and Hemorrhage” (priority 2024, published 2025).

In one data set the test system is hemorrhagic shock. Format: in vivo, rats. The protocol: Two studies of resuscitation by albumin after hemorrhage were performed. In the first study, resuscitation by a crystalloid (control) was compared to resuscitation with either a bolus of bovine serum albumin (BSA) saturated with oleic acid (OA-BSA) or a bolus of NEFA-free albumin, followed by crystalloid, as needed. As commercially available pharmaceutical grade albumin is human albumin (HSA) that is nearly saturated with caprylic acid, instead of oleic acid, in the second study OA-BSA, caprylic acid-saturated BSA (CA-BSA), and pharmaceutical grade human serum albumin (HSA) were compared. A crystalloid-only group (“Crystalloid Only Group”) was also run as a control. […] There were no significant differences among the Albumin Groups (all containing high concentrations of NEFA) in any of the other measurements.
Laparotomy was performed to induce trauma, then the opening was covered with plastic wrap. The right hind leg was elevated and an inflatable tourniquet (digit cuff, Hokanson, Bellevue, WA) was positioned on the leg, but not yet inflated. For the second albumin study, isoflurane was lowered to 1% immediately before start of hemorrhage. Rats were hemorrhaged (2 ml/min/kg BW) by syringe pump until MAP dropped to 35 mmHg (designated as time T=0 h). At that time, the tourniquet was inflated using a Portable Tourniquet System (Delfi Medical, Vancouver, Canada), representing first aid. The controlled hemorrhage rate was then reduced to 0.6 ml/min/kg to simulate hemorrhage not controlled by tourniquet (e.g., from another injury site or imperfect application). Blood pressure was maintained at 33-38 mmHg by adjusting the draw rate (0.2-0.8 ml/min/kg), until the total hemorrhage reached 27 ml/kg. […] The bolus size was chosen as the estimated dosage needed to replace the albumin lost to hemorrhage. […] At T=2 h, representing the maximum recommended time before conversion to hemostatic dressing 16, the tourniquet was deflated and removed. Surviving animals were euthanized at T=4 h by intravenous administration of 0.2 ml of sodium pentobarbital euthanasia solution (Beuthanasia, Merck Animal Health, Madison, NJ), while still under anesthesia. After euthanasia, the right lung was harvested for moisture analysis (MA160, Sartorious, Bohemia, NY) and the left lung for collection of BALF (3X bronchoalveolar lavage fluid with 3 ml saline). Following the final lavage, the left lung was infused with formalin fixative for histological analysis. The liver, heart, spleen, kidney, and jejunum were also collected and fixed in formalin for histological analysis.

For data set [1], the system named is Trauma and 27 ml/kg hemorrhagic shock. The data set is described as follows: Second albumin study: trauma and 27 ml/kg hemorrhagic shock model, albumin bolus then crystalloid as needed. Type of data set: in vivo.
Procedure: Rats were acclimated for at least 5 days after arrival at the facility prior to experimental procedures. Trauma and 27 ml/kg hemorrhagic shock models in the art were used with some modifications: 1) an extended observation period considered entirely pre-hospital to represent prolonged field care and 2) a reduction in isoflurane during hemorrhage, intended to reduce the mortality prior to resuscitation (FIG. 28). Rats were assigned into 4 treatment groups: Crystalloid (N=15), OA-saturated BSA (OA-BSA; N=17), CA-saturated BSA (CA-BSA; N=17), and pharmaceutical HSA (N=17). Adult, male Sprague Dawley rats (Charles River Laboratories, Houston, TX) between 325 and 400 g in body weight (BW) were induced with isoflurane (4%) in medical air, then maintained at 2-3% throughout instrumentation. Core temperature was maintained (36-37° C.) using a heating pad and monitored with a rectal probe (Physitemp, Clifton, NJ). The carotid artery was cannulated for continuous pressure recording, the left femoral artery for controlled hemorrhage, and the left femoral vein for blood sampling and resuscitation fluid administration. PE50 tubing for vessel cannulations was soaked overnight in heparin to reduce clotting.
Laparotomy was performed to induce trauma, then the opening was covered with plastic wrap. […]

Regarding “NEFA-free albumin: albumin preparation with a NEFA content of 0-0.14% by weight of albumin; bovine serum albumin in the experiments”, in the data set on hemorrhagic shock (first study), the “amount of resuscitation fluid required to keep pressure at a sufficient level” value came to 46 mL/kg; the “effect on pressure relative to OA-BSA and Crystalloid Only Group” value is given as “intermediate between the other two groups”. In the data set with hemorrhagic shock (rat, in vivo), the vascular leakage result is “did not cause vascular leakage”.

Consider “OA-BSA: bovine serum albumin (BSA) saturated with oleic acid, 25% bolus”, for which, in the data set on hemorrhagic shock (first study), the “amount of resuscitation fluid required to keep pressure at a sufficient level” value amounted to 6 mL/kg and the “significantly reduced mortality compared to the Crystalloid Only Group” value is recorded as “significantly reduced mortality”. The same substance had a mortality in the data set with hemorrhagic shock (first study, FIG. 4) of 8%. Besides, the “loss of protein from the circulation (plasma/total protein T2 to T4)” value in data set [1] (rat, in vivo) is recorded as “significant drop”.

Turning to CA-BSA: caprylic acid-saturated BSA, the “loss of protein from the circulation (plasma/total protein T2 to T4)” value in data set [1] (second study, FIG. 2 and FIG. 3) is “significant drop”.
